Reference: paper PMC9481570, “A small molecule antagonist of SMN disrupts the interaction between SMN and RNAP II” (Nature Communications, 2022)
“And” between values parts separate entries of the source, which are not always exact repeats. Equal values may be shown once.

Assays:
Test in all cases: Affinity-purification and mass spectrometry (AP-MS) chemical proteomics, all proteins;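 as to Difference: 200 µM free competitor with 20 µM biotin probe overnight in lysate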
Format in all cases: binding
[1] = target: T1, proteins displaced from immobilized biotin-Cmpd 1 pulldowns (U2OS cell lysate) (Homo sapiens, UniProt O43684); settings: GN=BUB3 (O43684)
T1 construct: endogenous in cells; host or cells: U2OS
T1 sequence (O43684 whole entry): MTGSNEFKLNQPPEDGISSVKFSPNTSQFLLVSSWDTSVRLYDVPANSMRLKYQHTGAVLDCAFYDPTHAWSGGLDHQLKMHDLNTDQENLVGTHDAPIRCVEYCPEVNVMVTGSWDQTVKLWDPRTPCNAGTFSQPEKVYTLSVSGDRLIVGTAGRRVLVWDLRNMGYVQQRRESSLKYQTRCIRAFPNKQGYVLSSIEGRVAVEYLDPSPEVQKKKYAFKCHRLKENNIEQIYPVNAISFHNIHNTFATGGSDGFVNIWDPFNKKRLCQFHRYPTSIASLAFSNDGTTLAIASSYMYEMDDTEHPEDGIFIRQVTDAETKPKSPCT
Protocol: (§1) The samples for AP-MS were prepared following pulldown procedure as previously described with minor modifications. Briefly, U2OS cells were lysed in RIPA buffer and the cell lysate was equally divided into two groups: (1) DMSO group (control group): the cell lysate was incubated with 20 μM biotin-labeled compound 1; (2) Cpmd 1 group (sample group): the cell lysate was incubated with 20 μM biotin-labeled compound 1 and 200 μM free compound 1. Each group contains three biological replicates. They were incubated overnight at 4 °C, then 30 μL streptavidin beads (Thermo Fisher, 20353) was added and incubated at 4 °C for 1 h. The beads were then washed with RIPA buffer for 3 times, 10 min/time.
(§2) Beads were rinsed twice with 50 mM TEAB, pH 7.55, before eluting proteins with 25 μL of 5% SDS, 50 mM TEAB, pH 7.55. The sample was then centrifuged at 17,000 × g for 10 min to remove any debris. Proteins were reduced with 20 mM TCEP (Thermo Fisher, 77720) and incubated at 65 °C for 30 min. The sample was cooled to room temperature and 1 μL of 0.5 M iodoacetamide acid was added and allowed to react for 20 min in dark. Phosphoric acid (12%, 2.75 μL) was added to the protein solution, followed by adding 165 μL of binding buffer (90% methanol, 100 mM TEAB, pH 7.1). The resulting solution was added to S-Trap spin column (protifi.com) and passed through the column using a bench top centrifuge (30 s spin at 4000 × g). The spin column was washed with 400 μL of binding buffer and centrifuged. This step was repeated two more times. Then trypsin was added to the protein mixture at a mass ratio of 1:25 in 50 mM TEAB, pH 8.0, and the sample was incubated at 37 °C for 4 h. Peptides were eluted with 80 μL of 50 mM TEAB, followed by 80 μL of 0.2% formic acid, and finally 80 μL of 50% acetonitrile, 0.2% formic acid. The combined peptide solution was then dried in a speed vac and resuspended in 2% acetonitrile, 0.1% formic acid, 97.9% water and placed in an autosampler vial.
(§3) Samples were analyzed by nanoLC-MS/MS (nanoRSLC, Thermo Fisher) using an Aurora series (Ion Opticks) reversed phase HPLC column (25 cm length × 75 µm inner diameter) and directly injected to an Orbitrap Eclipse (Thermo Fisher) using a 120 min gradient (mobile phase A = 0.1% formic acid, mobile phase B = 99.9% acetonitrile with 0.1% formic acid; hold 2% B for 5 min, 2–6% B in 0.1 min, 6–25% in 100 min, 25–50% in 15 min) at a flow rate of 350 nL/min. Eluted peptide ions were analyzed using a data-dependent acquisition (DDA) method with resolution settings of 120,000 and 15,000 (at m/z 200) for MS1 and MS2 scans, respectively. DDA-selected peptides were fragmented using stepped high energy collisional dissociation (27, 32, and 37%).
(§4) The data of AP-MS were analyzed as a previously described method with minor modifications. Briefly, the raw MS files were searched with MaxQuant software (version 1.6.1.1, www.maxquant.org)[56] against the UniProt human protein database (www.uniprot.org) concatenated with common contaminants and the decoy database. The mass tolerance for precursor ions was set to 20 ppm and 4.5 ppm for the first and main search, respectively. The cysteine carbamidomethylation was set as fixed modification and methionine oxidation and N-terminal acetylation as variable modifications. Enzyme specificity was set to trypsin and a maximum missed cleavage was set as 2. The 1% false discovery rate (FDR) at both peptide and protein levels was applied for the analysis. Relative protein quantification was based on the label-free quantification incorporated in the MaxQuant software. The iBAQ intensity of proteins was obtained for the control and experimental samples. The missing iBAQ intensity was replaced by a random number, which was calculated from a normal distribution with a width of 0.3 and a downshift of 1.8 defined by Perseus software (version 1.6.5.0). The P-value was calculated by performing two-sample Student’s t-test. […]

[2] = target: T2, proteins displaced from immobilized biotin-Cmpd 1 pulldowns (U2OS cell lysate) (Homo sapiens, UniProt P01040); settings: GN=CSTA (P01040)
T2 construct: endogenous in cells; host or cells: U2OS
T2 sequence (P01040 whole entry): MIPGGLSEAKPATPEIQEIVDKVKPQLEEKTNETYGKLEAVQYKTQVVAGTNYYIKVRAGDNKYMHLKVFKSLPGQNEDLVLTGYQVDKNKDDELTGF
Protocol: as §1, §2, §3, §4

[3] = target: T3, proteins displaced from immobilized biotin-Cmpd 1 pulldowns (U2OS cell lysate) (Homo sapiens, UniProt P05109); settings: GN=S100A8 (P05109)
T3 construct: endogenous in cells; host or cells: U2OS
T3 sequence (P05109 whole entry): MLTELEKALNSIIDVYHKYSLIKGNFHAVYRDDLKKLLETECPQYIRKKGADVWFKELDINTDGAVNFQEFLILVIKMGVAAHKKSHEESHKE
Protocol: as §1, §2, §3, §4

[4] = target: T4, proteins displaced from immobilized biotin-Cmpd 1 pulldowns (U2OS cell lysate) (Homo sapiens, UniProt P09493); settings: GN=TPM1 (H0YKX5)
T4 construct: endogenous in cells; host or cells: U2OS
T4 sequence (P09493 whole entry): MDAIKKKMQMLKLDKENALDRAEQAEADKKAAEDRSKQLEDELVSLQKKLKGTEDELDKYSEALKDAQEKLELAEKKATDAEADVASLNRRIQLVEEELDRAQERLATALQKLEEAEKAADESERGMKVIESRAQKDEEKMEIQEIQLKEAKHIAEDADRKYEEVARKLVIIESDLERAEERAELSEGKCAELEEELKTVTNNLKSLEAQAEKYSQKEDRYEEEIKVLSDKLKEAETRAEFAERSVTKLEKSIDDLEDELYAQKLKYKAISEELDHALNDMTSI
Protocol: as §1, §2, §3, §4

[5] = target: T5, proteins displaced from immobilized biotin-Cmpd 1 pulldowns (U2OS cell lysate) (Homo sapiens, UniProt P25789); settings: GN=PSMA4 (P25789)
T5 construct: endogenous in cells; host or cells: U2OS
T5 sequence (P25789 whole entry): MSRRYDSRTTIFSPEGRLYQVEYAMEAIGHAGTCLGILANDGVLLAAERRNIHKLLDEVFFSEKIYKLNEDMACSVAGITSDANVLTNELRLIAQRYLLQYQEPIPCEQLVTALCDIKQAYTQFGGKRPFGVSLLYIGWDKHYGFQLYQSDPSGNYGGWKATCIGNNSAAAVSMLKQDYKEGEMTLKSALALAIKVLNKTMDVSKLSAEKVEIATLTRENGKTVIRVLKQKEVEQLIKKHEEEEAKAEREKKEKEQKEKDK
Protocol: as §1, §2, §3, §4

[6] = target: T6, proteins displaced from immobilized biotin-Cmpd 1 pulldowns (U2OS cell lysate) (Homo sapiens, UniProt Q6UB35); settings: GN=MTHFD1L (Q6UB35)
T6 construct: endogenous in cells; host or cells: U2OS
T6 sequence (Q6UB35 32-978): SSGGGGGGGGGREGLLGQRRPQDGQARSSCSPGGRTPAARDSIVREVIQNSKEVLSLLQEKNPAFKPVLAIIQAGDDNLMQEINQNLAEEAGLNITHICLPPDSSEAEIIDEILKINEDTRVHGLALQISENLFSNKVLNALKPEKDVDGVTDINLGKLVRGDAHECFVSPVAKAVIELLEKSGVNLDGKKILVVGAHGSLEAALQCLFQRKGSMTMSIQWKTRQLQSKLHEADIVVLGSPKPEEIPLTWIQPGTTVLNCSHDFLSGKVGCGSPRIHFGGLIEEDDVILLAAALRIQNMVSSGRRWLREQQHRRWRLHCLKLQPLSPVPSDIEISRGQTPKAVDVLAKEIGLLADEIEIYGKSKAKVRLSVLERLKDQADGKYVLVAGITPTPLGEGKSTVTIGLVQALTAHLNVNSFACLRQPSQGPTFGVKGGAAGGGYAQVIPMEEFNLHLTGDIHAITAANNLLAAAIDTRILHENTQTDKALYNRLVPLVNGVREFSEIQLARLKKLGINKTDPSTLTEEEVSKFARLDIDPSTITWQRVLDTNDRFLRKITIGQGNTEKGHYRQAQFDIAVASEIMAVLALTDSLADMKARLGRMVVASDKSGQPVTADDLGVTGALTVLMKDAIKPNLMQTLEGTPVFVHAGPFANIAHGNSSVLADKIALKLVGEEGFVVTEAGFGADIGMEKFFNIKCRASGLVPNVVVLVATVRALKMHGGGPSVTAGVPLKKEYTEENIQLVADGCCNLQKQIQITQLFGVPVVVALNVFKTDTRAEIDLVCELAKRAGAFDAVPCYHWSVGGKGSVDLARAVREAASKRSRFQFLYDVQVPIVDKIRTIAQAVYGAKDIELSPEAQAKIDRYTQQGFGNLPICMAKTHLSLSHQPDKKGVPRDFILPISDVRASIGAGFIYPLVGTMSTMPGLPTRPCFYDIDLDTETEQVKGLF
Protocol: as §1, §2, §3, §4

[7] = target: T7, proteins displaced from immobilized biotin-Cmpd 1 pulldowns (U2OS cell lysate) (Homo sapiens, UniProt Q6ZVX7); settings: GN=NCCRP1 (Q6ZVX7)
T7 construct: endogenous in cells; host or cells: U2OS
T7 sequence (Q6ZVX7 whole entry): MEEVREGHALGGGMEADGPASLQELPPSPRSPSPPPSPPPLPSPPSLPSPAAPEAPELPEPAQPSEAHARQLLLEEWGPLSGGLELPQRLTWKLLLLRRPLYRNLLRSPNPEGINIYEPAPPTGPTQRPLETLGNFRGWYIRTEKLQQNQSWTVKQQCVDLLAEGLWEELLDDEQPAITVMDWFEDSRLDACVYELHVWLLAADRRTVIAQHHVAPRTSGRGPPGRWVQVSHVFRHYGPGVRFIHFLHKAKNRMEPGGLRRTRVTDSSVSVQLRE
Protocol: as §1, §2, §3, §4

[8] = target: T8, proteins displaced from immobilized biotin-Cmpd 1 pulldowns (U2OS cell lysate) (Homo sapiens, UniProt Q96EY1); settings: GN=DNAJA3 (Q96EY1)
T8 construct: endogenous in cells; host or cells: U2OS
T8 sequence (Q96EY1 whole entry): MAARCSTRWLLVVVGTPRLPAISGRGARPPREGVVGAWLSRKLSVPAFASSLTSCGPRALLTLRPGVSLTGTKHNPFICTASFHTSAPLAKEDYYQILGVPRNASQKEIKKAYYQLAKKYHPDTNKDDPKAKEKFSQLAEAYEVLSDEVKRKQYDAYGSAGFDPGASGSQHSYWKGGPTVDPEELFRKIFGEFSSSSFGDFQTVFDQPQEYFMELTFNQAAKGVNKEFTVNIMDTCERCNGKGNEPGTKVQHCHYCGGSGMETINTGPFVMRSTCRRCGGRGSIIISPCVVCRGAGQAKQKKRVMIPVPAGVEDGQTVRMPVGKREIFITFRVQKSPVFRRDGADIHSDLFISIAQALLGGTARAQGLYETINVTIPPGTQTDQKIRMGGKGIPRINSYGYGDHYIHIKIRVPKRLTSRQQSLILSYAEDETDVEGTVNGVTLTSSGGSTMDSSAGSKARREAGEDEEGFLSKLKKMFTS
Protocol: as §1, §2, §3, §4

[9] = target: T9, proteins displaced from immobilized biotin-Cmpd 1 pulldowns (U2OS cell lysate) (Homo sapiens, UniProt Q96HE9); settings: GN=PRR11 (Q96HE9)
T9 construct: endogenous in cells; host or cells: U2OS
T9 sequence (Q96HE9 whole entry): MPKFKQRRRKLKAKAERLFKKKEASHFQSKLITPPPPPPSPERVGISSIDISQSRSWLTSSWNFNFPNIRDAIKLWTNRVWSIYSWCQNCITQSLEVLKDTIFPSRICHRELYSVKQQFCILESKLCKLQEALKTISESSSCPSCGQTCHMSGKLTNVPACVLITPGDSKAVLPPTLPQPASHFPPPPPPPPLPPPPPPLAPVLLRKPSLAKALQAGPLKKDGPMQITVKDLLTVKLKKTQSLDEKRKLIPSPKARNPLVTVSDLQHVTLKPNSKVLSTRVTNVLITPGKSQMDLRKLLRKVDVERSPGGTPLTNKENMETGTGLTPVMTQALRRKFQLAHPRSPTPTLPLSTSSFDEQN
Protocol: as §1, §2, §3, §4

[10] = target: T10, proteins displaced from immobilized biotin-Cmpd 1 pulldowns (U2OS cell lysate) (Homo sapiens, UniProt Q9BSJ8); settings: GN=ESYT1 (Q9BSJ8)
T10 construct: endogenous in cells; host or cells: U2OS
T10 sequence (Q9BSJ8 whole entry): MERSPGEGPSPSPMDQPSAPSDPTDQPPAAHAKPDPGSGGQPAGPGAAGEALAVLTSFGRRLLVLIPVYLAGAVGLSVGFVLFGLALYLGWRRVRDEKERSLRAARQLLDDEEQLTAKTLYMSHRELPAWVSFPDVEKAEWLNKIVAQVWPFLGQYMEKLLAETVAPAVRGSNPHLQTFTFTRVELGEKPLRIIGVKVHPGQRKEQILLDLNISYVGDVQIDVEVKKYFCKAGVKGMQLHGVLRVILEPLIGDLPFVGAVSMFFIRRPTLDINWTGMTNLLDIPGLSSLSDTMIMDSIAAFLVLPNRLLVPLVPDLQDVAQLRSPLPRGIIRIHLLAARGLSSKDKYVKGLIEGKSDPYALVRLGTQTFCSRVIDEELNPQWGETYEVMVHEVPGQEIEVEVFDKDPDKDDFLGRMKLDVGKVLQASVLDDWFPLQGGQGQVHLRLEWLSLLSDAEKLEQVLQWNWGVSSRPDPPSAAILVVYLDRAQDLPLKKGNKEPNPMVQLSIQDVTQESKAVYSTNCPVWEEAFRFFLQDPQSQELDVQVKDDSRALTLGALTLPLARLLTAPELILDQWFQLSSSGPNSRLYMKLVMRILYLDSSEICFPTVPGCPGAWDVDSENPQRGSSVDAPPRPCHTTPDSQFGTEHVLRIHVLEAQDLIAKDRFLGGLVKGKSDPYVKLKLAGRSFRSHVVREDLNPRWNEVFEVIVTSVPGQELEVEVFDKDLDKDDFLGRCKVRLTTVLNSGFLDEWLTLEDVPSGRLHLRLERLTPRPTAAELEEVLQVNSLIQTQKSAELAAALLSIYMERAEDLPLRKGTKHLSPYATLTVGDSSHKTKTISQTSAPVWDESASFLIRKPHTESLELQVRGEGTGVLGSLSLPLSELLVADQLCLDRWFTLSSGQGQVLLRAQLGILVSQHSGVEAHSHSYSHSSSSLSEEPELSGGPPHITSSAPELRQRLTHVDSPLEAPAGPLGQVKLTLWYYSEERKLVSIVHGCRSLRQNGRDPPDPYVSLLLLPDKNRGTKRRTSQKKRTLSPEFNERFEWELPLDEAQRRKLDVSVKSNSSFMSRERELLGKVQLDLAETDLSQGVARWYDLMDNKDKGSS
Protocol: as §1, §2, §3, §4

Cn1c2c(c(=N)c3c1CCC3)CCC2 [Compound 1, 4-methyl-2,3,4,5,6,7-hexahydrodicyclopenta[b,e]pyridin-8(1H)-imine]
Difference ([1]; Cmpd minus DMSO, -LOG(P-value) 1.63376): 1.137 | iBAQ Cmpd ([1]; replicates 1-3): 19.492 and 19.0748 and 18.4379 | Difference ([2]; Cmpd minus DMSO, -LOG(P-value) 0.909034): -0.9866 | iBAQ Cmpd ([2]; replicates 1-3): 23.1983 and 23.5243 and 22.4826 | Difference ([3]; Cmpd minus DMSO, -LOG(P-value) 1.46412): -2.055 | iBAQ Cmpd ([3]; replicates 1-3): 21.5375 and 20.6129 and 20.1927 | Difference ([4]; Cmpd minus DMSO, -LOG(P-value) 1.96752): -0.7334 | iBAQ Cmpd ([4]; replicates 1-3): 21.937 and 22.2825 and 22.2241 | Difference ([5]; Cmpd minus DMSO, -LOG(P-value) 1.07686): -2.957 | iBAQ Cmpd ([5]; replicates 1-3): 18.482 and 14.8891 and 15.1338 | Difference ([6]; Cmpd minus DMSO, -LOG(P-value) 1.33022): 0.8728 | iBAQ Cmpd ([6]; replicates 1-3): 15.8133 and 15.8201 and 15.0604 | Difference ([7]; Cmpd minus DMSO, -LOG(P-value) 1.30206): -3.138 | iBAQ Cmpd ([7]; replicates 1-3): 15.2988 and 15.7784 and 15.638 | Difference ([8]; Cmpd minus DMSO, -LOG(P-value) 0.746444): 0.8281 | iBAQ Cmpd ([8]; replicates 1-3): 17.7043 and 17.5809 and 17.383 | Difference ([9]; Cmpd minus DMSO, -LOG(P-value) 0.979867): 2.154 | iBAQ Cmpd ([9]; replicates 1-3): 17.2458 and 16.9213 and 18.1218 | Difference ([10]; Cmpd minus DMSO, -LOG(P-value) 2.56654): 4.81 | iBAQ Cmpd ([10]; replicates 1-3): 19.5229 and 18.9864 and 18.8876
